Here are results for two substances from publication PMC6973020, “Quinoline‐Conjugated Ruthenacarboranes: Toward Hybrid Drugs with a Dual Mode of Action” (Chemmedchem, 2019).

One assay has as its system LN229 cells. The assay can be described thus: AnnV/PI double staining, flow cytometry, LN229. It counts as cell-based, human. The following applies: LN229, 40 μM, 72 h. The method, then:
Flow cytometry. For gaining better insights into the mechanisms of action of the ruthenium complexes, MCF‐7 and LN229 cells incubated with an IC50 dose of 3 or 4, were analyzed via flow cytometry. Several staining protocols were carried out in parallel, in independent experiments: i) AnnV/PI for the detection of apoptotic cell death, ii) AO for the detection of acidic vacuoles, iii) ApoStat for checking caspase activation, iv) CFSE for detecting interference with cellular proliferation, and v) DAPI for the detection of morphological signs of apoptosis. Untreated cells or cells treated only with BSA (control) were also measured, as reference for BSA‐free and BSA‐containing drug formulations, respectively. […] Channels FL1 (green emission), FL2 (orange emission) and/or FL3 (dark red emission) were used for fluorescence detection, according to the specific staining agent. Sideward Scatter (SSC) for MCF‐7 cells treated with 4 or BSA−4 was also analyzed, with respect to the control, for detection of shifts of cell granularity. […]
FCS, 2 mM L‐glutamine, 0.01% sodium pyruvate and antibiotics, at 37 °C in a humidified atmosphere with 5% CO2. […] Cells were counted and seeded in 96‐well plates and incubated overnight, as described above. […]
Staining Protocols for Flow Cytometric Analysis. […] Finally, cells were washed in PBS, resuspended in PBS (or AnnV‐binding buffer for AnnV/PI), and analysed. […]
For orientation: A flow cytometer gives signals particle by particle.

Assay [1] relates to A375, B16 and MCF‐7 cell lines. Kind of assay: CV cell viability assay, summary for A375, B16 and MCF‐7. The assay is classed as cell-based. The following applies: range over the three cell lines, 72 h. From the text: Thus, care must be taken when comparing their biological activities with those of our previous studies, even with the same cell line, because the covalent vs. non‐covalent combination of drugs might imply different mechanisms of action in the cell.44 Here, we studied the in vitro activity of ruthenacarborane 3, i. e. free acid, and its 8‐hydroxyquinolyl (4) and 4‐{(7‐chloroquinolin‐4‐yl)oxy}butanol‐1‐yl (5) esters, against a panel of cancer cell lines (B16 mouse melanoma, A375 human skin melanoma, MCF‐7 human breast adenocarcinoma, LN229 human glioblastoma, U251 human glioma). Human fibroblast cell line MRC‐5, murine microglial cell line BV‐2 as well as peritoneal exudate cells (Mph), were chosen as models for non‐malignant cells. […] Cells were exposed to 3–5 for 72 h, after which cell viability was determined via 3‐(4,5‐dimethylthiazol‐2‐yl)‐2,5‐diphenyltetrazolium bromide (MTT) and crystal violet (CV) assays, in parallel (Table 2). […]
Colorimetric assays for cellular viability. […] The absorbance was measured with an automated microplate reader at λmax 540 nm, with the reference λmax 670 nm. Untreated cells or cells treated only with BSA (control) were also measured, as reference for BSA‐free and BSA‐containing drug formulations, respectively. […] Cell viability is expressed as percentage (%) relative to control (untreated cultures).58 Experiments were run in three independent replicates. […]

Turning to “closo ‐[3‐(η^6‐p‐Cymene)‐1‐(quinolin‐8‐yl‐acetate)‐3,1,2‐RuC2B9H10] [Compound 4]”, the “early apoptotic (Ann+/PI−) cells” value in the assay on LN229 cells (control 0.9 %) is 9.0%. Moreover, in the assay with LN229 cells (control 7.4 %), the “late apoptotic (Ann+/PI+) cells” value stood at 35%. Take “closo‐ [Compound 3, closo‐ [3‐(η^6‐p‐Cymene)‐1‐(CH2COOH)‐3,1,2‐RuC2B9H10]]”: in assay [1], the IC50 (in general, the midpoint of a concentration-inhibition curve) was in the range of 18 to 23 µM.
